# Measured values from article PMC7536268, “Increased Antimicrobial Activity of Colistin in Combination With Gamithromycin Against Pasteurella multocida in a Neutropenic Murine Lung Infection Model” (Frontiers in Microbiology, 2020).
# Where two headings read alike, the source gives them in different places. Where a SMILES comes first, the peptide text is derived from it. Bridges are numbered along the chain shown (N, C = ends). [ ]: non-standard residue; d: D form. The star is where a group is joined. X1 = CC[C@H](C)CCCCC(=O)*; Dab = NCC[C@H](N)C(=O)O
# Key:
# [1] = system: Pasteurella multocida (D18, T5, and WJ11); assay: In vitro time-kill assays; type: cell-based; conditions: colistin alone 0.25-1 mg/L, 24 h, all strains (D18, T5, WJ11), inoculum ~5 × 10^6 CFU/mL
# Procedure: In vitro time-kill assays were used to evaluate the effects of colistin alone and in combination with gamithromycin over 24 h. Three isolates of P. multocida (D18, T5, and WJ11) were tested. A P. multocida inoculum at ∼5 × 10^6 CFU/mL was treated with colistin alone at 0.25, 0.5, and 1 mg/L; gamithromycin alone at 0.125, 0.25, and 0.5 mg/L; and with colistin in combination with gamithromycin. At 0, 1, 2, 4, 6, 8, 12, and 24 h after incubation, 100-μL samples were taken from each tube for colony counting. A growth control without drug administration was included in all tests.
# [2] = set-up: method as in Soon-Ee et al., 2015; conditions: ref Soon-Ee et al., 2015; cited from earlier work
# [3] = system: Pasteurella multocida strains; assay: MIC by broth microdilution (CLSI); type: cell-based; conditions: drug alone, broth microdilution, Mueller-Hinton broth, triplicate
# Procedure: The susceptibility of the selected P. multocida isolates and the quality control isolate (ATCC 25922) to colistin, gamithromycin, cefquinome, enrofloxacin, tilmicosin, tylosin tartrate, and florfenicol alone was determined using the microdilution method in broth (conducted in triplicate) according to the guiding principles of the CLSI. Based on the action mechanism of each drug, the antimicrobial activity of colistin or cefquinome (drug A) in combination with gamithromycin, enrofloxacin, tilmicosin, tylosin tartrate, or florfenicol (drug B) was determined with the checkerboard method, according to the minimal inhibitory concentration (MIC) of each drug. Briefly, 50 μL of MH II broth was added to each well, and 50 μL of the indicated concentration of colistin or cefquinome was added into the first well of each line. This was followed by multiproportion dilution. Next, 50-μL samples of different concentrations of gamithromycin or the other drugs mentioned above were added to the dilution medium, and a 100 μL inoculum with a cell density of ∼1 × 10^6 colony-forming units (CFU)/mL was added to each well. The plates were then incubated at 37°C for 24 h. According to the EUCAST definitive document E.Def 1.2 ([Mccullough, 2010]), the fractional inhibitory concentration (FIC) index for combined administrations was defined as the sum of the FIC of drug A and the FIC of drug B, where FIC is the MIC of the drug combined with other drugs, divided by the MIC of the drug alone.
# [4] = In vitro plasma protein binding, equilibrium dialysis; type: in vitro ADME; conditions: 72 h at 4°C
# Procedure: In vitro plasma protein-binding experiments for gamithromycin were conducted by adopting an equilibrium dialysis method for 72 h at 4°C. The corresponding unbound plasma PK parameters were obtained and used for the integration of PK and PD data.
# [5] = system: Pasteurella multocida strains (D18, T5, and WJ11); assay: PK/PD relationship analysis (inhibitory Emax model, plasma AUC/MIC, target doses); type: in vivo; conditions: gamithromycin monotherapy; for Gamithromycin AUC/MIC required to reach 1-log10 kill / Gamithromycin AUC/MIC required to reach stasis: plasma AUC
# Procedure: The relationship between the in vivo antimicrobial activity of gamithromycin alone or in combination with colistin and the ratio of plasma PK parameters to the MIC of gamithromycin was assessed. An inhibitory effect Emax model from the Phoenix WinNonlin identification module was used for analysis based on the equation: E = Emax − (Emax−E0) × Ce/(Ce + EC50), where E is the antimicrobial effect (i.e., the change in bacterial burden in CFU per lung), Emax is the change in log10 CFU/lung for control groups, […], Ce is the PK/PD index under analysis, and EC50 is the Ce value at 50% of E0.
# Integration of PK and PD data is important for clinical drug administration ([Toutain et al., 2002]). Herein, PK values in plasma were used to calculate the PK/PD index, which was integrated with changes in bacteria log10 CFU/lung. Antimicrobials that achieve significant PAE values are generally described as concentration-dependent ([Jacobs, 2004]).
# P. multocida = system: P. multocida; set-up: method as in Benoit et al., 2011; conditions: P. multocida with erm(E); ref Benoit et al., 2011; cited from earlier work
# Description: Bovine respiratory disease (BRD) associated with Mannheimia haemolytica, P. multocida, and Histophilus somni is one of the most economically important diseases that occur in feedlots, and the global losses are estimated at over $3 billion per year ([Watts and Sweeney, 2010]).
# [6] = cattle, SC 6 mg/kg; ref Steeve et al., 2011; cited from earlier work
# [7] = swine, SC 6 mg/kg; ref Wyns et al., 2014; cited from earlier work
# [8] = strain D18, lungs of mice, n = 4
# [9] = strain T5, lungs of mice, n = 4
# [10] = strain WJ11, lungs of mice, n = 4
smiles,measurement,setting,value
CC[C@H](C)CCCCC(=O)N[C@@H](CCN)C(=O)N[C@H](C(=O)N[C@@H](CCN)C(=O)N[C@H]1CCNC(=O)[C@H]([C@@H](C)O)NC(=O)[C@H](CCN)NC(=O)[C@H](CCN)NC(=O)[C@H](CC(C)C)NC(=O)[C@@H](CC(C)C)NC(=O)[C@H](CCN)NC1=O)[C@@H](C)O [Colistin] (X1-[Dab]T[Dab][Dab][Dab][dL]L[Dab][Dab]T; lactam 4-C),time-kill outcome,[1],incapable of controlling bacterial growth
same,unbound extent in plasma,[2],8.4%
CCCN1C[C@H](C)[C@@H](O)[C@](C)(O)[C@@H](CC)OC(=O)[C@H](C)[C@@H](O[C@H]2C[C@@](C)(OC)[C@@H](O)[C@H](C)O2)[C@H](C)[C@@H](O[C@@H]2O[C@H](C)C[C@H](N(C)C)[C@H]2O)[C@](C)(O)C[C@H]1C [Gamithromycin],MIC,[3]; strain CVCC 444,0.5 mg/L
same,MIC,[3]; strain D18,0.5 mg/L
same,MIC,[3]; strain PmP2 (pig),0.5 mg/L
same,MIC,[3]; strain PmP17 (pig),0.5 mg/L
same,MIC,[3]; strain T5,0.5 mg/L
same,MIC,[3]; strain WJ11,0.5 mg/L
same,MIC,[3]; strain WN71,0.5 mg/L
same,MIC,[3]; strain WW81,0.5 mg/L
same,MIC,[3]; strain XX12,0.5 mg/L
same,plasma protein binding extent,[4],13.83%
same,Gamithromycin dose required to reach 1-log10 kill,"[5]; Mean ± SD of D18, T5, WJ11, SD",67.11 ± 6.01 mg/kg
same,Gamithromycin dose required to reach stasis,"[5]; Mean ± SD of D18, T5, WJ11, SD",18.43 ± 3.10 mg/kg
same,Gamithromycin dose required to reach 1-log10 kill,[5]; [8],65.32 mg/kg
same,Gamithromycin dose required to reach stasis,[5]; [8],17.99 mg/kg
same,Gamithromycin AUC/MIC required to reach 1-log10 kill,"[5]; strain D18, n = 4",36.74
same,Gamithromycin AUC/MIC required to reach stasis,"[5]; strain D18, n = 4",10.33
same,Gamithromycin dose required to reach 1-log10 kill,[5]; [9],73.80 mg/kg
same,Gamithromycin dose required to reach stasis,[5]; [9],21.73 mg/kg
same,Gamithromycin AUC/MIC required to reach 1-log10 kill,"[5]; strain T5, n = 4",41.51
same,Gamithromycin AUC/MIC required to reach stasis,"[5]; strain T5, n = 4",12.47
same,Gamithromycin dose required to reach 1-log10 kill,[5]; [10],62.19 mg/kg
same,Gamithromycin dose required to reach stasis,[5]; [10],15.58 mg/kg
same,Gamithromycin AUC/MIC required to reach 1-log10 kill,"[5]; strain WJ11, n = 4",34.98
same,Gamithromycin AUC/MIC required to reach stasis,"[5]; strain WJ11, n = 4",8.11
same,MIC,P. multocida,≥ 512 mg/L
same,AUClast,[6],7.82 mg⋅h/L
same,AUClast,[7],3.48 mg⋅h/L
